From US20180125068A1, “OCTANOIC, NONANOIC AND DECANOIC FATTY ACIDS WITH PYRETHROID ADULTICIDES” (priority 2016, published 2018)
Read-outs that look alike come from different tables or passages of the source.

Legend:
[1] = test system: Aedes aegypti resistant to permethrin (Key West strain); test: Wind tunnel bioassay, various pyrethroids (Example 7); assay type: in vivo; conditions: pyrethroid alone 0.5% A.I., C8910 0%, 24 hours post-spray, mean
Text: This exposed 80 caged A. aegypti to the spray. Each test was replicated four times.

[2] = test system: pyrethroid susceptible Aedes aegypti; test: CDC bottle bioassay, susceptible strain; assay type: in vivo
Experimental: (§1) The following bioassays were performed to determine how pyrethroid susceptible and pyrethroid resistant Aedes aegypti responded to exposure to permethrin and the fatty acids mixture, separately and combined. The standard Centers for Disease Control (“CDC”) bottle bioassay method was used. The testing was conducted at Centro Internacional de Entrenamiento e Investigaciones Médicas (“CIDEIM”) in Colombia with susceptible and resistant Aedes aegypti. The compounds were diluted in acetone, added to the bottles, and bottles were rolled to coat them internally until dry. Susceptible and resistant mosquitoes were exposed inside the treated bottles.
(§2) Bottle bioassays assess susceptibility by measuring time-to-death of mosquitoes exposed in bottles coated internally with a “diagnostic concentration” of the test compound.

[3] = test system: pyrethroid resistant Aedes aegypti; test: CDC bottle bioassay, resistant strain; assay type: in vivo; conditions: bottle coated with diagnostic concentration, n=5
Experimental: as §1, §2

[4] = test system: Aedes aegypti resistant and susceptible to permethrin; test: WHO wind tunnel bioassay (Example 4); assay type: in vivo; conditions: 24 hour mortality
Experimental: In this bioassay, the standard WHO wind tunnel bioassay was used by CIDEIM. Aedes aegypti that were known to be resistant and susceptible to permethrin were used in the studies. […] solutions were prepared with the following ratios of C8, 9, 10 fatty acids mixture to permethrin: 2:1 (0.67% C8910+0.33% permethrin); 1:1 (0.5% C8910+0.5% permethrin); and 1:2 (0.33% C8910+0.67% permethrin). A one percent permethrin formulation was tested as well as a C8, 9, 10 fatty acids mixture.
The solutions were diluted in acetone to 1%, 0.1%, 0.01%, 0.001%, 0.0001%, and 0.00001%. Then 0.5 ml of each dilution was sprayed into the wind tunnel. This exposed 20 caged mosquitos to the spray. Each test was replicated three times. The 24 hour mortality was then observed. This type of assay is desirable because it tests the compounds without being formulated.

[5] = test system: Aedes aegypti resistant to permethrin (Key West strain); conditions: observed, C8910 0%
Text: (§3) In this bioassay, Aedes aegypti known to be resistant to permethrin (Key West strain) were exposed to C8, 9, 10 alone, permethrin alone, and combinations of C8, 9, 10 and permethrin at 1:5, 1:2, 1:1, 2:1 and 5:1 ratios in a standard wind tunnel bioassay. The actives were suspended in 1 milliliter oil-based ultra-low volume sprays and sprayed into the wind tunnel. This exposed 80 caged A. aegypti to the spray. Each test was replicated four times. Fifteen-minute, one-hour and twenty-four hour mortality of the resistant A. aegypti was then observed.
(§4) Synergy was calculated using Abbott's synergy equation described in Levy Y et al., The joint action of fungicides in mixtures: comparison of two methods for synergy calculation, Bulletin OEPP/EPPO Bulletin, 1986, 16, 651-657. Specifically, a ratio greater than 1.0 of observed to expected percent mortality for combinations of two pesticides is evidence of synergy. Expected % mortality was calculated using the formula % Cexp=A+B−[…] where A is percent mortality of A. aegypti exposed to C8, 9, 10, B is percent mortality of A. aegypti exposed to permethrin and Cexp is expected percent mortality of A. aegypti exposed to a combination of C8, 9, 10 and permethrin.

[6] = test system: A. aegypti susceptible to permethrin (Benzon research strain); conditions: observed, C8910 0%
Text: as §3, §4
In this assay, A. aegypti known to be susceptible to permethrin (Benzon research strain) were exposed to C8, 9, 10 alone, permethrin alone, and combinations of C8, 9, 10 and permethrin at 1:5, 1:2, 1:1, 2:1 and 5:1 ratios in a standard wind tunnel bioassay identical to that described above.

[7] = test system: Cimex lectularius resistant to deltamethrin (Lex8 strain); conditions: observed, d-Phenothrin 0.375% alone
Experimental: as §4
(§5) The actives were suspended in 1 milliliter oil-based ultra-low volume sprays and sprayed into the wind tunnel. This exposed 10 adult male beg bugs to the spray. Each test was replicated three times. 1, 2, 3 and 4-day mortality of the bed bugs was then observed.

[8] = test system: Cimex lectularius susceptible to insecticides (Harold Harlan strain); conditions: observed, d-Phenothrin 0.25% alone
Experimental: as §4, §5

[9] = susceptible strain, bottle coated with diagnostic concentration, n=5

SMILES: CC(C)=C[C@@H]1[C@@H](C(=O)O[C@H](C#N)c2cccc(Oc3ccccc3)c2)C1(C)C (relative stereo) [d,d,trans-cyphenothrin, d,d,trans-Cyphenothrin]
- % Mortality 24 hour [1]: 76%

SMILES: CC1(C)C(C(=O)OC(C#N)c2cccc(Oc3ccccc3)c2)C1(C)C (centres unmarked) [Fenpropathrin]
- mortality at 0.5 % strength ([1]; Aedes aegypti): 65%

SMILES: CC1(C)C(C=C(Cl)Cl)C1C(=O)OCc1cccc(Oc2ccccc2)c1 (centres unmarked) [Permethrin]
- mortality ([2]; susceptible mosquitos, at about 80 minutes, FIG. 1): ~100%
- LT50 [2, 9]: 18.8 min
- LT99 [2, 9]: 99.3 min
- LT50 [3]: 73.5 min
- LT99 [3]: 306.7 min
- mortality rate of resistant compared with susceptible mosquitos [4]: lower mortality rates
- % Mortality ([5]; 15 min, Permethrin 1.6%): 28.1%
- % Mortality ([5]; 15 min, Permethrin 4.0%): 34.4%
- % Mortality ([5]; 1 hour, Permethrin 1.6%): 41.6%
- % Mortality ([5]; 1 hour, Permethrin 4.0%): 49.4%
- % Mortality ([5]; 24 hour, Permethrin 1.6%): 55.0%
- % Mortality ([5]; 24 hour, Permethrin 4.0%): 63.4%
- % Mortality ([6]; 15 min, Permethrin 0.4%): 4.4%
- % Mortality ([6]; 15 min, Permethrin 1.0%): 26.9%
- % Mortality ([6]; 1 hour, Permethrin 0.4%): 34.1%
- % Mortality ([6]; 1 hour, Permethrin 1.0%): 54.4%
- % Mortality ([6]; 24 hour, Permethrin 0.4%): 42.5%
- % Mortality ([6]; 24 hour, Permethrin 1.0%): 65.3%

SMILES: CC(C)=CC1C(C(=O)OCc2cccc(Oc3ccccc3)c2)C1(C)C (stereo not drawn) [d-Phenothrin, Sumithrin (d-phenothrin)]
- % Mortality ([7]; 1 day): 6.7%
- % Mortality ([7]; 2 days): 10.0%
- % Mortality ([8]; 1 day): 0.0%
- % Mortality ([8]; 2 days): 0.0%
- % Mortality ([8]; 3 days): 46.7%
- % Mortality ([8]; 4 days): 56.7%
